Measurements taken from the supplement of paper PMC10307832.

How the values were obtained:
Assay in all cases: relative viability (nuclei count vs DMSO), 5 days (fraction); higher = more cells survive
[1] = compound: C[C@@]1(C(=O)Nc2ccc(F)nc2)CCCN1c1nc(Nc2cc(C3CC3)n[nH]2)c2cccn2n1 + COc1cccc2cc(-c3nc([C@H]4CC[C@H](C(=O)O)CC4)n4ncnc(N)c34)[nH]c12 [OSI-027] (partner 0.5 µM)
Procedure, shortened: (§1)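 For relative viability, nuclei counts in treated wells were divided by those in vehicle wells. Lung cancer cell lines had been pin-tool dosed in 1536-well plates the day after seeding and cultured for 5 days, then fixed and stained in one step (final 0.05% Triton X-100, 1% formaldehyde, 1 ug/ml Hoechst) and imaged at 4×. Doses were one drug alone or a fixed anchor-drug dose plus five library-drug doses (not always all listed) in √10 steps, and values are duplicate-plate medians.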

Motesanib + Foretinib = compound: CC1(C)CNc2cc(NC(=O)c3cccnc3NCc3ccncc3)ccc21 [Motesanib] + COc1cc2c(Oc3ccc(NC(=O)C4(C(=O)Nc5ccc(F)cc5)CC4)cc3F)ccnc2cc1OCCCN1CCOCC1 [Foretinib] (partner 0.25 µM)
Procedure, shortened: as §1

[2] = compound: C[C@@]1(C(=O)Nc2ccc(F)nc2)CCCN1c1nc(Nc2cc(C3CC3)n[nH]2)c2cccn2n1 + NC(=O)Nc1cc(-c2cccc(F)c2)sc1C(=O)N[C@H]1CCCNC1 [AZD7762] (partner 0.2 µM)
Procedure, shortened: as §1

Motesanib + Lapatinib = compound: CC1(C)CNc2cc(NC(=O)c3cccnc3NCc3ccncc3)ccc21 [Motesanib] + CS(=O)(=O)CCNCc1ccc(-c2ccc3ncnc(Nc4ccc(OCc5cccc(F)c5)c(Cl)c4)c3c2)o1 [Lapatinib] (partner 2 µM)
Procedure, shortened: as §1

Cell Line	relative viability ([1]; first compound 0.04 µM)	relative viability ([1]; first compound 0.1265 µM)	relative viability ([1]; first compound 0.4 µM)	relative viability ([1]; first compound 1.265 µM)	relative viability (Motesanib + Foretinib; first compound 0.01 µM)	relative viability (Motesanib + Foretinib; first compound 0.03162 µM)	relative viability (Motesanib + Foretinib; first compound 0.1 µM)	relative viability (Motesanib + Foretinib; first compound 0.3162 µM)	relative viability (Motesanib + Foretinib; first compound 1 µM)	relative viability ([2]; first compound 0.04 µM)	relative viability ([2]; first compound 0.1265 µM)	relative viability ([2]; first compound 0.4 µM)	relative viability ([2]; first compound 1.265 µM)	relative viability (Motesanib + Lapatinib; first compound 0.01 µM)	relative viability (Motesanib + Lapatinib; first compound 0.03162 µM)	relative viability (Motesanib + Lapatinib; first compound 0.1 µM)	relative viability (Motesanib + Lapatinib; first compound 0.3162 µM)	relative viability (Motesanib + Lapatinib; first compound 1 µM)
201T	0.519	0.356	0.35	0.306	1.09	1.1	0.997	1.13	1.1	0.623	0.575	0.473	0.597	1.01	1.04	1.08	1.04	0.903
A549					0.88	0.942	1.02	0.944	1.03					0.965	0.975	0.989	1.09	0.955
A-427	0.442	0.275	0.366	0.261	1.04	1.05	1.06	1.16	1.23	0.64	0.642	0.647	0.427	0.668	1.02	0.896	1.1	1.02
ABC-1	0.382	0.285	0.225	0.298	1.1	1.06	1.04	1.05	1.2	0.833	0.595	0.643	0.593	1.12	0.945	1.01	1.27	1.17
BEN	0.263	0.18	0.236	0.271	0.627	0.55	0.739	0.572	0.992	0.809	0.645	0.67	0.676	0.591	0.715	0.723	0.714	0.789
CAL-12T	0.486	0.382	0.292	0.275	1.13	1.19	1.2	1.19	1.12	0.659	0.765	0.78	0.677			0.67	0.649	0.65
COR-L23	0.656	0.53	0.518	0.461	0.993	1.06	0.992	0.964	0.955					0.931	0.929	1.01	0.996	1.08
COR-L 105	0.627	0.377	0.31	0.408	1.2	1.03	1.16	0.821	1.42					0.368	0.408	0.327	0.355	0.347
Calu-6					0.953	0.921	0.851	0.884	0.826					1.06	1.05	1.02	0.997	0.999
ChaGo-K-1	0.402	0.252	0.317	0.291	0.933	0.894	0.861	1.1	1.01	0.845	0.815	0.862	0.841					
EBC-1					0.1	0.0945	0.109	0.111	0.132					0.268	0.206	0.223	0.211	0.223
EKVX	0.574	0.399	0.391	0.373	0.744	0.902	0.743	0.82	0.921	0.671	0.505	0.489	0.578	0.201	0.21	0.225	0.204	0.246
EMC-BAC-2	0.299	0.274	0.241	0.251	1.01	1.06	1.1	1.05	1.03	1.14	0.644	0.679	0.54	0.884	0.881	0.847	0.926	0.875
EPLC-272H	0.301		0.24	0.189	0.659	0.744		0.663	0.799	0.215	0.187	0.212	0.164	1	0.943	0.847	0.925	0.898
H3255	0.523	0.555	0.397	0.447	0.837	0.762	0.889	0.791	0.976	0.96	0.931	0.811	0.855	0.228	0.276	0.224	0.268	0.254
HARA	0.439	0.208	0.171	0.25	0.94	0.801	0.906	0.915	0.881	0.42	0.227	0.73	0.198	0.698	0.668	0.77	0.742	0.804
HCC-15	0.417	0.189	0.305	0.365	0.984	0.838	1.01	1.17	1.11	1.07	1.18	1.25	1.13	0.849	0.874	0.723	0.947	0.886
HCC-44	0.447	0.213	0.298	0.191						1.02	0.954	0.989	0.979	0.989	0.952	1.02	1.04	1.03
HCC-78	0.377	0.308	0.298	0.323	0.665	0.637	0.507	0.514	0.678	0.593	0.419	0.418	0.4	0.662	0.785	0.63	0.913	0.916
HCC-366	0.861	0.585	0.462	0.437	0.955	0.932	0.952	0.883	1.02	0.356	0.31	0.293	0.152	0.913	1.08	1.06	1.13	1.06
HCC-827	0.393	0.782	0.707	0.724	0.963	1.09	1.02	1.08	1.03	0.273	0.19	0.241	0.191	0.198	0.191	0.172	0.224	0.192
HOP-62	0.758	0.574	0.641	0.657	1.17	1.1	1.02	1.1	1.21	0.812	0.541	0.427	0.547	0.968	0.97	0.957	1.33	1.09

Cell Line	relative viability ([1]; first compound 0.04 µM)	relative viability ([1]; first compound 0.1265 µM)	relative viability ([1]; first compound 0.4 µM)	relative viability ([1]; first compound 1.265 µM)	relative viability (Motesanib + Foretinib; first compound 0.01 µM)	relative viability (Motesanib + Foretinib; first compound 0.03162 µM)	relative viability (Motesanib + Foretinib; first compound 0.1 µM)	relative viability (Motesanib + Foretinib; first compound 0.3162 µM)	relative viability (Motesanib + Foretinib; first compound 1 µM)	relative viability ([2]; first compound 0.04 µM)	relative viability ([2]; first compound 0.1265 µM)	relative viability ([2]; first compound 0.4 µM)	relative viability ([2]; first compound 1.265 µM)	relative viability (Motesanib + Lapatinib; first compound 0.01 µM)	relative viability (Motesanib + Lapatinib; first compound 0.03162 µM)	relative viability (Motesanib + Lapatinib; first compound 0.1 µM)	relative viability (Motesanib + Lapatinib; first compound 0.3162 µM)	relative viability (Motesanib + Lapatinib; first compound 1 µM)
IA-LM					1.12	1.1	1.23	1.07	1.19					0.88	0.723	0.703	0.645	0.729
LC-2-ad	0.601	0.458	0.405	0.392	0.875	0.988	0.893	0.984	1.02	0.657	0.586	0.543	0.391	0.947	0.921	0.999	1.1	0.843
LCLC-103H	0.434	0.295	0.268	0.274	0.809	0.707	0.844	0.867	0.937	0.7	0.748	0.6	0.691					
NCI-H441	0.405	0.322	0.313	0.328	0.889	0.922	1.13	1	1.03	1.07	0.651	0.528	0.856					
NCI-H520	0.328	0.297	0.257	0.22	0.857	0.79	0.922	0.851	0.948					0.714	0.823	0.877	0.882	0.899
NCI-H522	0.589	0.36	0.735	0.704						0.678	0.539	0.791	0.821					
NCI-H661	0.592	0.564	0.249	0.529	0.998	1.1	0.991	1.13	0.9					0.429	0.563	0.511	0.386	0.49
NCI-H1299					1.06	1.11	1.11	1.16	1.12					0.958	0.979	0.995	1.01	0.935
NCI-H1563	0.721	0.599	0.609	0.631	0.904	0.899	0.915	0.909	0.889					0.9	0.991	1.08	0.923	0.951
NCI-H1623	0.423	0.32	0.307	0.302	0.869	0.889	0.763	0.871	0.873									
NCI-H1648	0.25			0.229						0.671	0.608	0.586	0.676					
NCI-H1650	0.546	0.49	0.442	0.374	1.25	0.816	1.16	1.27	1.23					0.807		0.667	0.723	0.735
NCI-H1703					0.349	0.318	0.325	0.395	0.355	0.145	0.111	0.13	0.12	1.05	0.679	0.526	0.334	0.323
NCI-H1792	0.303	0.828	0.199	0.212						0.446	0.277	0.332	0.323	0.881	0.854	0.843	0.926	0.945
NCI-H2009	0.634	0.371	0.403	0.42	1.23	1.21	1.23	1.22	1.21					1.08	0.927	0.962	1.36	0.898
NCI-H2023	0.3	0.088	0.105	0.116	0.849	0.838	0.837	0.911	0.927					0.939	0.778	0.54	0.988	0.897
NCI-H2228	0.495	0.187	0.227	0.229	0.995	0.937	0.902	1.02	0.796					0.902	1.13	0.848	1.24	1.08
NCI-H2342	0.636	0.561	0.448	0.479	1.03	1.09	1.12	1.1	0.971	0.475	0.375	0.404	0.323					
SK-LU-1	0.252	0.176	0.198	0.219	0.941	0.831	0.846	0.841	0.906					0.844	1.02	0.894	0.961	1.01
SK-MES-1	0.615	0.317	0.357	0.286	0.949	0.963	0.982	0.945	0.86					0.46	0.481	0.418	0.465	0.454
SW 900	0.549	0.518	0.464	0.551	0.824	0.9	1.36	0.887	0.874	0.541	0.688	0.5	0.561					
SW 1573	0.548	0.24	0.283	0.302	0.772	0.905	0.93	0.936	1.08					1.16	1.09	1	0.929	1.33
